ChEMBL document CHEMBL3507680, “University of Dundee, Gates Library screen for HepG2 cell viability”

Experiment: Human HepG2 cell viability assay in 384 well format
Assay type: toxicity, cell-based
Design: dose 125 nL, time 70.5 hour; cytotoxicity at 70.5 h: concentration not given beside the values
Conditions: HepG2 cells, read-out: Inhibition

Row | Compound | cytotoxicity at 70.5 h [%]
1 | N#CC(NC(=O)CCC1CCC1)c1cnn(-c2ccccc2)c1 (centres undefined) | 17.3
2 | N#CC(NC(=O)CC1CCSCC1)c1cnn(-c2ccccc2)c1 (centres undefined) | -3.51
3 | CS(=O)(=O)c1nccn1Cc1ccc(OC(F)F)cc1 | -4.68
4 | O=C(c1cc[nH]n1)N(Cc1cccc(O)c1)CC1CC1 | -7.41
5 | CC(NCCn1c(=O)oc2ccccc21)c1ccccn1 (centres undefined) | -5.54
6 | Cc1nnc2n1CCN(C(C)c1nnc(-c3cccs3)o1)C2 (centres undefined) | -8.71
7 | O=C(c1cc2ccccc2o1)N1CCN(Cn2cc(Cl)cn2)CC1 | -5.33
8 | Cc1noc(C)c1CN(C)C(=O)CCOc1ccc(Cl)cc1 | -11.7
9 | Cc1cc(C(=O)N2CCN(Cn3cc(Cl)cn3)CC2)on1 | -8.38
10 | Cc1ccc(-c2nnc(C(C)N3CCn4c(C)nnc4C3)o2)cc1 (centres undefined) | -1.43
11 | CC(NC(N)=O)C(=O)Nc1ccc(OCc2cccc(F)c2)c(F)c1 (centres undefined) | -10.3
12 | Cc1cccc(COc2ccc(NC(=O)C(C)NC(N)=O)c(C)c2)c1 (centres undefined) | -9.19
13 | Cc1ccccc1OCCC(=O)N(C)Cc1c(C)noc1C | -11.1
14 | CSC(C)C(=O)N1CCN(CC(C)(C)O)CC1 (centres undefined) | -14
15 | CC(C)c1ccc(C(=O)O)cc1S(=O)(=O)Nc1ccc(=O)n(C)c1 | 2.84
16 | CCN1CCN(C(=O)Cc2ccc(S(=O)(=O)C(F)F)cc2)CC1 | 5.94
17 | CC(c1nnc(-c2cccs2)o1)N1CCn2c(nnc2C2CC2)C1 (centres undefined) | -0.792
18 | Cc1csc(C(C#N)C(=O)Nc2ccccc2)n1 (centres undefined) | -0.341
19 | Cc1noc(C)c1CNC(C(=O)N1CCOCC1)C(C)C (centres undefined) | -7.07
20 | CCC1CN(C(=O)c2cnc(-c3ccccc3)s2)CCO1 (centres undefined) | -1.27
21 | CCc1ccsc1C(=O)N1CCN(C(=O)c2ccc(C)o2)CC1 | -5.92
22 | COC(=O)c1sccc1CN1CCN(C(=O)c2ccc(C)o2)CC1 | -8.65
23 | CCCNC(=O)CSCc1ccc(S(=O)(=O)N(C)C)o1 | -6.98

Row | Compound | cytotoxicity at 70.5 h [%]
24 | CC(C)C(c1cccnc1)N(C)C(=O)Cc1ccc(O)cc1 (centres undefined) | 0.393
25 | Cc1cnc(CN(C)C2CCN(Cc3nc4c(F)cccc4[nH]3)C2)o1 (centres undefined) | 1.64
26 | COCC(O)CN(C)c1ccnc2ccc(Cl)cc12 (centres undefined) | 13.9
27 | Cc1noc(C)c1CCC(=O)Nc1ccn(C)n1 | 1.75
28 | Cc1noc(C)c1C(=O)N1CCSc2ccc(Cl)cc21 | 11.5
29 | Cc1cc(C)cc(OCCN(C)Cc2ccc(S(=O)(=O)N(C)C)o2)c1 | 19.6
30 | Cc1cc(C(=O)N2CCCC(c3nncn3C)C2)no1 (centres undefined) | -5.95
31 | O=C(Nc1ccccn1)C1CCN(Cc2cc3c(cc2O)OCO3)CC1 | 3.83
32 | CC1CCN(S(=O)(=O)N2Cc3ccccc3C[C@H]2C(N)=O)CC1 | -4.51
33 | CC(=O)N(C)c1nc(Cn2nnnc2C(C)C)cs1 | -6.77
34 | O=C(NCC1CCN(CCc2ccccc2)C1)c1cc(Cl)c[nH]1 (centres undefined) | 2.19
35 | CCn1nc(C)cc1C(=O)NCc1nc(C)no1 | -6.53
36 | O=C(NCc1nc2cc(F)ccc2[nH]1)c1ccc[nH]1 | 17.9
37 | CN(CC(F)(F)F)C(=O)CNC(=O)N1CCC(N2CCCC2)C1 (centres undefined) | -9.53
38 | CCCc1nnnn1CC(=O)NCc1cccc(C)c1 | -3.35
39 | CCc1cnccc1C(=O)NC1CCN(Cc2ccccc2F)CC1 | -6.35
40 | CC1COCCN1Cc1nc(C(C)(C)C)no1 (centres undefined) | -6.43
41 | CCc1nnc(CN(C)CC2CCCCC2)o1 | -0.472
42 | COCC(O)CN(C)c1ccnc2cc(Br)ccc12 (centres undefined) | -6.19
43 | Cc1nn(C)cc1CN(C)Cc1cc2c(cc1OC(F)F)OCO2 | -7.7
44 | O=S(=O)(c1ccccc1)N1CCCN(CCCn2ccnc2)CC1 | -10.3
45 | CCC(C)CNc1ccc2oc(COC)nc2c1 (centres undefined) | 42.8
46 | NS(=O)(=O)c1ccc(NC(=O)CSc2ccc3c(c2)CCC3)cc1 | -2.39

Row | Compound | cytotoxicity at 70.5 h [%]
47 | c1ccc(COC2CCN(c3cncc(-n4cccn4)n3)CC2)cc1 | -9.06
48 | CCNC(=O)N(C)Cc1ccc(SC)c(OC)c1 | -7.42
49 | CC(=O)c1cccc(NC(=O)CN2CCCCC2C2OCCO2)c1 (centres undefined) | -1.12
50 | Cn1cnnc1C1CCN(c2cncc(-n3cccn3)n2)CC1 | 1.11
51 | COc1ccc(CNC2CCN(CCc3ccncc3)CC2)cc1O | -6.38
52 | Cc1ccc(C(CNCc2ccncc2)N2CCOCC2)s1 (centres undefined) | 18.9
53 | O=C(C1SCCc2sccc21)N1CCN(CCO)CC1 (centres undefined) | -2.81
54 | O=C(C1SCCc2sccc21)N1CCC(O)CC1 (centres undefined) | 1.7
55 | O=C(CN1CCCCC1C1OCCO1)Nc1ccc(F)c(F)c1 (centres undefined) | -2.55
56 | COC(=O)CCNC(=O)C1CC(=O)N(C2CCCC2)C1 (centres undefined) | 0.402
57 | CC(C)n1c(C2CCCN(CCS(C)(=O)=O)C2)nc2ccccc21 (centres undefined) | -0.395
58 | Cc1ccc(CNC2CCN(CCc3ccncc3)CC2)cc1C | 1.32
59 | CN(CC(=O)NCc1ccccn1)CC1CCCN1c1cccnn1 (centres undefined) | 0.56
60 | Cc1ccc(C(CNCc2cnn(C(C)C)c2)N2CCOCC2)s1 (centres undefined) | -0.62
61 | COc1ccc(C(=O)N(C)Cc2cccc(C#N)c2)c(OC)c1OC | -5.18
62 | CCCn1nc2c(cc1=O)CN(Cc1nc(CCOC)no1)CC2 | -3.53
63 | CCN(CC)C(=O)Nc1cc2c(cc1SC)OCCO2 | -6.83
64 | Cc1cnn(C2CN(Cc3ccc4c(c3)OCCO4)C2)c1 | -10.6
65 | FC(F)(F)C1CCCn2c(CNCc3ccsc3)nnc21 (centres undefined) | -9.55
66 | O=c1oc(-c2cccs2)nn1CC(O)c1ccccc1 (centres undefined) | -13.3
67 | CCOc1ncccc1CNC(=O)N1CCCC1c1ccncc1 (centres undefined) | -8.99
68 | CCNC(=O)NC(=O)CSC(C)c1ccccc1F (centres undefined) | -9.82
69 | CCOc1cccc(C(C)NCc2ccc(OC)c(OC)c2OC)c1 (centres undefined) | 6.82

Row | Compound | cytotoxicity at 70.5 h [%]
70 | CCNC(=O)NC(=O)CSC(C)c1c(F)cccc1F (centres undefined) | 10.3
71 | CCN(CC)C(=O)CCNC(=O)Cc1nc(-c2ccco2)oc1C | 4.78
72 | N#Cc1cn(CC(=O)NC2CC2)c2ccc(Br)cc2c1=O | -7.46
73 | CCN(CC(=O)NC)C(=O)Cc1nc(-c2ccco2)oc1C | -7.15
74 | CCc1nc(CCNC(=O)Nc2ccc(C(=O)NC)cc2C)cs1 | 13.7
75 | O=C(O)c1ccn(-c2ccccc2NS(=O)(=O)c2ccccc2)n1 | -0.995
76 | Cc1cc(S(=O)(=O)N2CCCc3cc(F)cc(F)c32)sc1C(=O)O | 11.1
77 | O=C(NC1(c2nnn(Cc3ccncc3)n2)CCCC1)c1ccccc1 | -1.85
78 | CSC(C)(C)CNC(=O)NC1CCSCC1 | -6.55
79 | Cc1n[nH]c(C2CN(CC(=O)NCc3ccco3)CCO2)n1 (centres undefined) | 15.9
80 | CSCC(=O)N1CCCC1c1noc(C2CC2)n1 (centres undefined) | -4.73
81 | O=C(NCCCn1ccnc1)N1CCCC1c1ccncc1 (centres undefined) | -1.54
82 | CC(C)(C)OC(=O)NC(C)(C)c1noc(CN2CCCCC2)n1 | -3.07
83 | O=C(CCNS(=O)(=O)c1ccccc1)NCc1ccoc1 | -9.84
84 | CCS(=O)(=O)c1ccc(N2CCC(NC(C)=O)CC2)cc1 | -5.9
85 | COC1CCN(C(=O)c2c(Cl)c3ccccc3n2C)CC1 | -9.88
86 | CCNC(=O)c1cnc(Cc2ccc(F)cc2)s1 | -6.25
87 | COc1cccc(S(=O)(=O)CCN2CCC3(CC2)OCCO3)c1 | -18.5
88 | CCCC(=O)NCc1cc(Br)c(OC)c(OC)c1 | -6.96
89 | Cc1nc2c(c(C)c1CC(=O)Nc1ccc(Cl)cc1)c(=O)[nH]n2C | -3.48
90 | c1cnn(CC2CCCCN2c2ncnc3sccc23)c1 (centres undefined) | -6.33
91 | Cc1cnn(CCNCc2ccc(OCc3csc(C)n3)cc2)c1 | -4.31
92 | O=C(NCCc1cccc(O)c1)NC1CCN(c2ccccc2)C1=O (centres undefined) | 1.16

Row | Compound | cytotoxicity at 70.5 h [%]
93 | O=C(O)c1ccc(F)c(S(=O)(=O)Nc2ccc(-n3cccn3)c(Cl)c2)c1 | -6.87
94 | CCCC(NC(=O)c1ccc(OC)cc1F)c1nnn[nH]1 (centres undefined) | -3.7
95 | CCCC(NC(=O)c1cc(C)ccc1C)c1nnn[nH]1 (centres undefined) | 13.6
96 | COCC(=O)N1CCC2(CC1)CN(c1ccsc1)C(=O)CO2 | -8.62
97 | O=C(c1ccsc1)N1CCN2C[C@H](OCc3ccccn3)C[C@H]2C1 | -10.1
98 | Cc1cccc(CN2CCn3c(C(=O)N(C)C)cnc3C2)c1 | -4.36
99 | O=C(C1CCOCC1)N1CCC2(CC1)CN(c1ccsc1)C(=O)CO2 | -6.23
100 | Cc1noc(C)c1CN1C[C@@H]2COC[C@@H](CC(=O)N3CCCO3)[C@@H]2C1 | -6.49
101 | Cc1noc(C)c1CN1C[C@@H]2COC[C@H](C(=O)N3CCCO3)[C@@H]2C1 | 31.1
102 | CN(C)C(=O)c1cnc2n1CCN(Cc1cccc(C#N)c1)C2 | -7.44
103 | COCCN1C(=O)CC[C@@H]2[C@H]1CCN2Cc1cccc(C#N)c1 | -11.2
104 | Cc1cc(CN2C[C@@H]3COC[C@@H](C(=O)N4CCCCO4)[C@@H]3C2)no1 | 20.1
105 | CN(C)[C@@H]1CCN(C(=O)c2cccn2C)[C@H]1Cc1cnn(C)c1 | -11.3
106 | Cc1cc(CN2C[C@@H]3COC[C@H](C(=O)N4CCCCO4)[C@@H]3C2)no1 | -11.3
107 | CN(C)[C@@H]1CCN(C(=O)c2cccc(C#N)c2)[C@H]1Cc1cnn(C)c1 | -8.57
108 | Cc1ccccc1C(=O)N1CC[C@@H](N(C)C)[C@@H]1Cc1cnn(C)c1 | 25.4
109 | CCN1C[C@H]2[C@@H](C1)N(S(=O)(=O)c1ccccc1F)CC[C@H]2OC | -3.89
110 | Cc1noc(C)c1CN1C[C@@H]2COC[C@@H](CC(=O)N3CCCCO3)[C@@H]2C1 | -6.43
111 | O=C(c1ccc(F)cc1)N1CCN2C[C@H](OCc3cccnc3)C[C@H]2C1 | -11
112 | CO[C@H]1CCN(S(=O)(=O)c2cccnc2)[C@@H]2CN(CC3CC3)C[C@H]12 | -6.81
113 | CCN1C[C@@H]2[C@@H](OC)CCN(S(=O)(=O)c3cccnc3)[C@@H]2C1 | -10.5
114 | CO[C@@H]1CCN(S(=O)(=O)c2cccnc2)[C@@H]2CN(CC3CC3)C[C@@H]21 | -8.38
